Measurements: US20090325964A1, “Piperazine Metabotropic Glutamate Receptor 5 (MGLUR5) Negative Allosteric Modulators For Anxiety/Depression” (Wyeth, priority 2008, published 2009)

These molecules were tested against T1, rat mGluR5 receptor (Rattus norvegicus, UniProt P31424) (assay: [3H]-MPEP displacement binding assay, HEK-293 cell membranes expressing rat mGluR5). Conditions: [3H]-MPEP displacement, rat mGluR5; no Ki given; read-out: IC50 (printed in the Median Ki column instead of a Ki).
T1 construct: expressed in transfected cells; host or cells: HEK-293
T1 sequence (P31424 21-1203): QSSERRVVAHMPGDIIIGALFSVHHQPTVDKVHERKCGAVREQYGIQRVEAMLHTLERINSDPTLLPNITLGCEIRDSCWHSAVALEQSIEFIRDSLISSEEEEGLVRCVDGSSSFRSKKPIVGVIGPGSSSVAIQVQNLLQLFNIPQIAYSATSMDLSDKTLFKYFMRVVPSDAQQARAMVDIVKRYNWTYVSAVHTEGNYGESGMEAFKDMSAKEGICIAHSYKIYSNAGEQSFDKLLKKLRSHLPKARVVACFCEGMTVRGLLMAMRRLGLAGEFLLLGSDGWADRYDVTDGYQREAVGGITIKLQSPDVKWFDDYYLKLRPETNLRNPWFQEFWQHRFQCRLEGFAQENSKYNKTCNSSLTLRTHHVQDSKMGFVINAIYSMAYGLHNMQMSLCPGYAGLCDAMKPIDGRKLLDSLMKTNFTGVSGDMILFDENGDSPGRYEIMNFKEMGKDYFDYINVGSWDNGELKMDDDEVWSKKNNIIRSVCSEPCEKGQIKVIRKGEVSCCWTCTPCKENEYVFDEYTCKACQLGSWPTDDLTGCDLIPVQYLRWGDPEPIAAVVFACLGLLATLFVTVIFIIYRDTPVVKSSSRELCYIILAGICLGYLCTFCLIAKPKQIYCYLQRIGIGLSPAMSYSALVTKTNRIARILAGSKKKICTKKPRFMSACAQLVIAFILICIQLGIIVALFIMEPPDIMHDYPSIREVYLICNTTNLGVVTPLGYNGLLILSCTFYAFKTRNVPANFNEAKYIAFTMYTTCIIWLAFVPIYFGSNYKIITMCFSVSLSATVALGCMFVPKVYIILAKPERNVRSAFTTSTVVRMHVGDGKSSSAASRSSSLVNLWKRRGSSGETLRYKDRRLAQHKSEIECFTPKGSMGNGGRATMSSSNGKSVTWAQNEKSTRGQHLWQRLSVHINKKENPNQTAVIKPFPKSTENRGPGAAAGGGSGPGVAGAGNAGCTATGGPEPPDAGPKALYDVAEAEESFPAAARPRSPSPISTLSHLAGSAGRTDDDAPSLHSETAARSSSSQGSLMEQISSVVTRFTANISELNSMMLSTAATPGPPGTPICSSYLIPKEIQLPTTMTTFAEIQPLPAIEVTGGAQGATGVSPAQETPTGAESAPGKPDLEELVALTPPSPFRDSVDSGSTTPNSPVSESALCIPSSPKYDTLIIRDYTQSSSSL
Summary of the method: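 Membranes from HEK-293 cells expressing rat mGluR5 (12-25 μg protein), incubated 60 min at room temperature with 4 nM [3H]-MPEP in 50 mM Tris pH 7.5, then filtered. Nonspecific binding defined with 10 μM MPEP.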

IC50 [nM]	SMILES
> 10000	COc1ccc(C(=O)N2CCN(S(=O)(=O)Cc3ccccc3)CC2)cc1C#Cc1ccccn1 [Compound 234, 1-(benzylsulfonyl)-4-[4-methoxy-3-(pyridin-2-ylethynyl)benzoyl]piperazine]
> 10000	COc1ccc(C(=O)N2CCN(c3ccc(F)cc3S(C)(=O)=O)CC2)cc1C#Cc1ccccn1 [Compound 240, 1-[4-fluoro-2-(methylsulfonyl)phenyl]-4-[4-methoxy-3-(pyridin-2-ylethynyl)benzoyl]piperazine]
> 10000	COc1ccc(C(=O)N2CCN(S(=O)(=O)c3ccc(-n4cnnn4)c(OC)c3)CC2)cc1C#Cc1ccccn1 [Compound 272, 1-[4-methoxy-3-(pyridin-2-ylethynyl)benzoyl]-4-{[3-methoxy-4-(1H-tetrazol-1-yl)phenyl]sulfonyl}piperazine]

Same assay, conditions: [3H]-MPEP displacement, rat mGluR5; read-out: Median Ki

Ki [nM]	SMILES
1040	COc1ccc(C(=O)N2CCCN(c3ccc(C#N)cn3)CC2)cc1C#Cc1ccccn1 [Compound 202, 6-{4-[4-methoxy-3-(pyridin-2-ylethynyl)benzoyl]-1,4-diazepan-1-yl}nicotinonitrile]
674	COc1ccc(C(=O)N2CCCN(c3ncccc3C(F)(F)F)CC2)cc1C#Cc1ccccn1 [Compound 209, 1-[4-methoxy-3-(pyridin-2-ylethynyl)benzoyl]-4-[3-(trifluoromethyl)pyridin-2-yl]-1,4-diazepane]
851	COc1ccc(C(=O)N2CCCN(c3ccc(C(F)(F)F)cn3)CC2)cc1C#Cc1ccccn1 [Compound 210, 1-[4-methoxy-3-(pyridin-2-ylethynyl)benzoyl]-4-[5-(trifluoromethyl)pyridin-2-yl]-1,4-diazepane]
619	COc1ccc(C(=O)N2CCCN(c3cccc(C)n3)CC2)cc1C#Cc1ccccn1 [Compound 211, 1-[4-methoxy-3-(pyridin-2-ylethynyl)benzoyl]-4-(6-methylpyridin-2-yl)-1,4-diazepane]
704	COc1ccc(C(=O)N2CCCN(c3ncc(C(F)(F)F)cc3Cl)CC2)cc1C#Cc1ccccn1 [Compound 212, 1-[3-chloro-5-(trifluoromethyl)pyridin-2-yl]-4-[4-methoxy-3-(pyridin-2-ylethynyl)benzoyl]-1,4-diazepane]
458	COc1ccc(C(=O)N2CCCN(c3ncccc3C#N)CC2)cc1C#Cc1ccccn1 [Compound 214, 2-{4-[4-methoxy-3-(pyridin-2-ylethynyl)benzoyl]-1,4-diazepan-1-yl}nicotinonitrile]
2190	COc1ccc(C(=O)N2CCCN(c3ccc([N+](=O)[O-])cn3)CC2)cc1C#Cc1ccccn1 [Compound 215, 1-[4-methoxy-3-(pyridin-2-ylethynyl)benzoyl]-4-(5-nitropyridin-2-yl)-1,4-diazepane]
115	COc1ccc(C(=O)N2CCN(S(=O)(=O)c3ccccc3)CC2)cc1C#Cc1ccccn1 [Compound 224, 1-[4-methoxy-3-(pyridin-2-ylethynyl)benzoyl]-4-(phenylsulfonyl)piperazine]
674	COc1ccc(C(=O)N2CCN(c3ccc(C(F)(F)F)cc3)CC2)cc1C#Cc1ccccn1 [Compound 228, 1-[4-methoxy-3-(pyridin-2-ylethynyl)benzoyl]-4-[4-(trifluoromethyl)phenyl]piperazine]
734	COc1ccc(C(=O)N2CCN(c3ccccc3OC)CC2)cc1C#Cc1ccccn1 [Compound 230, 1-(2-methoxyphenyl)-4-[4-methoxy-3-(pyridin-2-ylethynyl)benzoyl]piperazine]
521	COc1ccc(C(=O)N2CCN(c3ccc(S(C)(=O)=O)cc3)CC2)cc1C#Cc1ccccn1 [Compound 238, 1-[4-methoxy-3-(pyridin-2-ylethynyl)benzoyl]-4-[4-(methylsulfonyl)phenyl]piperazine]
1410	COc1ccc(C(=O)N2CCN(S(=O)(=O)c3ccc(Cl)c(Cl)c3)CC2)cc1C#Cc1ccccn1 [Compound 239, 1-[(3,4-dichlorophenyl)sulfonyl]-4-[4-methoxy-3-(pyridin-2-ylethynyl)benzoyl]piperazine]
1010	COc1ccc(C(=O)N2CCN(c3cc(C)ccc3C)CC2)cc1C#Cc1ccccn1 [Compound 242, 1-(2,5-dimethylphenyl)-4-[4-methoxy-3-(pyridin-2-ylethynyl)benzoyl]piperazine]
2840	COc1ccc(C(=O)N2CCN(c3ccccc3C(F)(F)F)CC2)cc1C#Cc1ccccn1 [Compound 246, 1-[4-methoxy-3-(pyridin-2-ylethynyl)benzoyl]-4-[2-(trifluoromethyl)phenyl]piperazine]
181	COc1ccc(C(=O)N2CCN(C(=O)C3CCCO3)CC2)cc1C#Cc1ccccn1 (stereo not shown) [Compound 249, 1-[4-methoxy-3-(pyridin-2-ylethynyl)benzoyl]-4-(tetrahydrofuran-2-ylcarbonyl)piperazine]
108	COc1ccc(C(=O)N2CCN(c3sc(S(N)(=O)=O)cc3[N+](=O)[O-])CC2)cc1C#Cc1ccccn1 [Compound 254, 5-{4-[4-methoxy-3-(pyridin-2-ylethynyl)benzoyl]piperazin-1-yl}-4-nitrothiophene-2-sulfonamide]
951	COc1ccc(C(=O)N2CCN(c3cc4ccc(Cl)cc4cn3)CC2)cc1C#Cc1ccccn1 [Compound 260, 7-chloro-3-{4-[4-methoxy-3-(pyridin-2-ylethynyl)benzoyl]piperazin-1-yl}isoquinoline]
1380	COc1ccc(C(=O)N2CCN(c3cc4ccc(Br)cc4cn3)CC2)cc1C#Cc1ccccn1 [Compound 261, 7-bromo-3-{4-[4-methoxy-3-(pyridin-2-ylethynyl)benzoyl]piperazin-1-yl}isoquinoline]
169	COc1ccc(C(=O)N2CCN(C(=O)c3ccccc3OC)CC2)cc1C#Cc1ccccn1 [Compound 263, 1-(2-methoxybenzoyl)-4-[4-methoxy-3-(pyridin-2-ylethynyl)benzoyl]piperazine]
106	COc1cccc(C(=O)N2CCN(C(=O)c3ccc(OC)c(C#Cc4ccccn4)c3)CC2)c1 [Compound 264, 1-(3-methoxybenzoyl)-4-[4-methoxy-3-(pyridin-2-ylethynyl)benzoyl]piperazine]
49	COc1ccc(C(=O)N2CCN(S(=O)(=O)c3ccc(Br)s3)CC2)cc1C#Cc1ccccn1 [Compound 269, 1-[(5-bromo-2-thienyl)sulfonyl]-4-[4-methoxy-3-(pyridin-2-ylethynyl)benzoyl]piperazine]
1540	COc1ccc(C(=O)N2CCN(S(=O)(=O)c3c(C)noc3C)CC2)cc1C#Cc1ccccn1 [Compound 270, 1-[(3,5-dimethylisoxazol-4-yl)sulfonyl]-4-[4-methoxy-3-(pyridin-2-ylethynyl)benzoyl]piperazine]
18	COc1ccc(C(=O)N2CCN(c3cc(Cl)cc(Cl)c3)CC2)cc1C#Cc1ccccn1 [Compound 271, 1-(3,5-dichlorophenyl)-4-[4-methoxy-3-(pyridin-2-ylethynyl)benzoyl]piperazine]
1740	COc1ccc(C(=O)N2CCN(S(=O)(=O)c3cccc4c(N(C)C)cccc34)CC2)cc1C#Cc1ccccn1 [Compound 273, 5-({4-[4-methoxy-3-(pyridin-2-ylethynyl)benzoyl]piperazin-1-yl}sulfonyl)-N,N-dimethylnaphthalen-1-amine]
139	COc1ccc(C(=O)N2CCN(c3nnc([N+](=O)[O-])s3)CC2)cc1C#Cc1ccccn1 [Compound 276, 1-[4-methoxy-3-(pyridin-2-ylethynyl)benzoyl]-4-(5-nitro-1,3,4-thiadiazol-2-yl)piperazine]
